SMILES strings stand for the structures.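 Protocol summary: plate cells (96-well), add compound at 5 concentrations, incubate 48 h, interpolate endpoints linearly. The concentration for 50% growth inhibition is given as GI50. TGI: total growth inhibition.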

In one test the test system is HCT-15 colon. The test is described as follows: inhibition of tumour cell growth, NCI panel, 48 h.
Regarding `C[C@@H]1CCC2[C@@H](C)[C@@H](OCC(CO[C@H]3OC4O[C@@]5(C)CC[C@H]6[C@H](C)CCC([C@H]3C)[C@@]46OO5)OC(=O)CCC(=O)O)OC3O[C@@]4(C)CC[C@@H]1[C@]32OO4` (stereo partly specified), the GI50 was < 0.01 µM and the TGI was 12.8 µM.
With `COc1cc(OC)cc(-c2cc(=O)c3c(OC)c(OC)c(OC)c(OC)c3o2)c1`, the TGI is > 100 µM.
`COc1cc2c(c(OC)c1OC)-c1ccc(OC)c(=O)cc1C(NC(=O)c1ccc(N=[N+]=[N-])cc1)CC2` (stereo unspecified) gave a TGI of 0.561 µM.
As for `O=C(/C=C\c1ccc(Cl)c(Cl)c1)c1ccc(Cl)cc1Cl`, the GI50 is 58 µM and the TGI is > 100 µM.
The compound `CCOC(=O)C(=C=C=C(c1ccccc1)c1ccccc1)C(=O)OCC` had a TGI of 49.1 µM.
`c1ccc(COc2cccc3ccc[n+](Cc4ccccc4)c23)cc1`: the TGI is > 100 µM.
For `CC(C)=Cc1cc(C(=O)Nc2ccc(Cl)c(Cl)c2)nc(N)n1`, the TGI is > 100 µM.
Take `O=C(CSc1ccc(Cl)cc1)Nc1ccc(-c2nc3ccccc3s2)c(Cl)c1`: the GI50 is 3.62 µM and the TGI is > 100 µM.

The subject of the next test is SF-539 CNS. The test is described as follows: inhibition of tumour cell growth, NCI panel, 48 h.
Turning to `CN(C(=O)c1ccc(C(F)(F)F)cc1)c1ccc(Oc2ccc3c(c2)cc(C(=O)N2CCN(Cc4ccc(OC(F)F)cc4)CC2)n3C)nc1`, the GI50 is > 100 µM and the TGI was > 100 µM.
With `COc1ccc(S(=O)(=O)NNS(C)(=O)=O)cc1`, the TGI was > 100 µM.
For the compound `Nc1ncnc2c1nnn2C1OC(CO)C(O)C1O` (stereo unspecified), the TGI is 9.04 µM.
With `CN1CCN(CCCn2c(=O)c3sc4ncccc4c3n3nnc(-c4ccccc4)c23)CC1`, the GI50 was 5.72 µM and the TGI worked out at 13.4 µM.
`CC(=O)OC1COC(n2ccc3cc(Br)c([N+](=O)[O-])cc32)C(OC(C)=O)C1OC(C)=O` (stereo unspecified) had a TGI of 44.4 µM.
With `NC1(C(=O)OCc2ccccc2)CCCC1`, the TGI was 31.7 µM.
For the compound `O=C(/C=C/c1ccc(Cl)cc1)c1ccc(Nc2ccnc3cc(Cl)ccc23)cc1`, the GI50 is > 63.3 µM and the TGI was > 100 µM.
With `CCCCCCCC(=O)SCC/C=C/[C@@H]1CC(=O)NCc2cc(ccn2)C2=N[C@@](C)(CS2)C(=O)N[C@@H](C(C)C)C(=O)O1`, the GI50 was 0.0203 µM and the TGI is > 33.3 µM.
Turning to `CSc1nc(NC2OCC(OC(C)=O)C(OC(C)=O)C2OC(C)=O)c(N=CC=Nc2c(NC3OCC(OC(C)=O)C(OC(C)=O)C3OC(C)=O)nc(SC)[nH]c2=O)c(=O)[nH]1` (stereo unspecified), the TGI is > 86.4 µM.
Compound `Cn1cnc([N+](=O)[O-])c1Sc1nc2ccccc2[nH]1` displayed a TGI of 27.8 µM.
In the case of `N#CC(C#N)=CNC(N)=S`, the TGI is > 100 µM.
As to `C[C@@H]1CCC2[C@@H](C)[C@@H](OCC(CO[C@H]3OC4O[C@@]5(C)CC[C@H]6[C@H](C)CCC([C@H]3C)[C@@]46OO5)OC(=O)CCC(=O)O)OC3O[C@@]4(C)CC[C@@H]1[C@]32OO4` (stereo partly specified), the GI50 is 2.26 µM and the TGI amounted to 28.8 µM.
Take `COc1cc(OC)cc(-c2cc(=O)c3c(OC)c(OC)c(OC)c(OC)c3o2)c1`: the TGI was > 100 µM.
Compound `COc1cc2c(c(OC)c1OC)-c1ccc(OC)c(=O)cc1C(NC(=O)c1ccc(N=[N+]=[N-])cc1)CC2` (stereo unspecified) had a TGI of 0.0611 µM.
`O=C(/C=C\c1ccc(Cl)c(Cl)c1)c1ccc(Cl)cc1Cl` had a TGI of 37.7 µM.
In turn, `CCOC(=O)C(=C=C=C(c1ccccc1)c1ccccc1)C(=O)OCC` registered a TGI of 33.8 µM.
Still for that read-out and setting: the result for `c1ccc(COc2cccc3ccc[n+](Cc4ccccc4)c23)cc1` reads > 100 µM.
Same read-out and setting: with `CC(C)=Cc1cc(C(=O)Nc2ccc(Cl)c(Cl)c2)nc(N)n1` the figure was > 100 µM.
`COc1cccc(-c2nc(-c3ccc(NC(=O)C(C)C)cc3)[nH]c2-c2ccnc(Br)c2)c1`: the GI50 is 1.78 µM and the TGI turned out to be 6.56 µM.
For the compound `O=C(CSc1ccc(Cl)cc1)Nc1ccc(-c2nc3ccccc3s2)c(Cl)c1`, the GI50 was 14.5 µM and the TGI came out at 32.7 µM.

The test system of another test is RXF 393 renal. Put plainly: inhibition of tumour cell growth, NCI panel, 48 h.
On to `CN(C(=O)c1ccc(C(F)(F)F)cc1)c1ccc(Oc2ccc3c(c2)cc(C(=O)N2CCN(Cc4ccc(OC(F)F)cc4)CC2)n3C)nc1`, for which the GI50 was 49.2 µM and the TGI was > 100 µM.
Take `COc1ccc(S(=O)(=O)NNS(C)(=O)=O)cc1`: the TGI was > 100 µM.
Consider `Nc1ncnc2c1nnn2C1OC(CO)C(O)C1O` (stereo unspecified), for which the GI50 is 0.271 µM and the TGI worked out at 1.51 µM.
`CN1CCN(CCCn2c(=O)c3sc4ncccc4c3n3nnc(-c4ccccc4)c23)CC1`: the GI50 was 6.36 µM and the TGI is 13.4 µM.
For `CC(=O)OC1COC(n2ccc3cc(Br)c([N+](=O)[O-])cc32)C(OC(C)=O)C1OC(C)=O` (stereo unspecified), the TGI is > 100 µM.
`NC1(C(=O)OCc2ccccc2)CCCC1` displayed a TGI of 33.7 µM.
`O=C(/C=C/c1ccc(Cl)cc1)c1ccc(Nc2ccnc3cc(Cl)ccc23)cc1`: the GI50 was 10.7 µM and the TGI was > 83.8 µM.
As for `CCCCCCCC(=O)SCC/C=C/[C@@H]1CC(=O)NCc2cc(ccn2)C2=N[C@@](C)(CS2)C(=O)N[C@@H](C(C)C)C(=O)O1`, the GI50 is 0.0128 µM and the TGI came out at 0.0822 µM.
For `CSc1nc(NC2OCC(OC(C)=O)C(OC(C)=O)C2OC(C)=O)c(N=CC=Nc2c(NC3OCC(OC(C)=O)C(OC(C)=O)C3OC(C)=O)nc(SC)[nH]c2=O)c(=O)[nH]1` (stereo unspecified), the TGI came out at 53 µM.
`Cn1cnc([N+](=O)[O-])c1Sc1nc2ccccc2[nH]1` yielded a TGI of 25.3 µM.
On to `N#CC(C#N)=CNC(N)=S`, for which the TGI was > 100 µM.
As for `C[C@@H]1CCC2[C@@H](C)[C@@H](OCC(CO[C@H]3OC4O[C@@]5(C)CC[C@H]6[C@H](C)CCC([C@H]3C)[C@@]46OO5)OC(=O)CCC(=O)O)OC3O[C@@]4(C)CC[C@@H]1[C@]32OO4` (stereo partly specified), the GI50 was < 0.01 µM and the TGI came out at 0.205 µM.
In the case of `COc1cc(OC)cc(-c2cc(=O)c3c(OC)c(OC)c(OC)c(OC)c3o2)c1`, the TGI was found to be 84.8 µM.
With `COc1cc2c(c(OC)c1OC)-c1ccc(OC)c(=O)cc1C(NC(=O)c1ccc(N=[N+]=[N-])cc1)CC2` (stereo unspecified), the TGI was found to be 0.061 µM.
For the compound `O=C(/C=C\c1ccc(Cl)c(Cl)c1)c1ccc(Cl)cc1Cl`, the TGI worked out at 39.7 µM.
As to `CCOC(=O)C(=C=C=C(c1ccccc1)c1ccccc1)C(=O)OCC`, the TGI amounted to 32.8 µM.
Same read-out and setting: the result for `c1ccc(COc2cccc3ccc[n+](Cc4ccccc4)c23)cc1` reads 61.9 µM.
For `CC(C)=Cc1cc(C(=O)Nc2ccc(Cl)c(Cl)c2)nc(N)n1`, the TGI was > 100 µM.
Turning to `COc1cccc(-c2nc(-c3ccc(NC(=O)C(C)C)cc3)[nH]c2-c2ccnc(Br)c2)c1`, the GI50 is 0.354 µM and the TGI is 1.46 µM.
In the case of `O=C(CSc1ccc(Cl)cc1)Nc1ccc(-c2nc3ccccc3s2)c(Cl)c1`, the GI50 was 14.1 µM and the TGI was determined as 55.8 µM.

The values are drawn from PubChem BioAssay (NCI).
